From patent US11173173B2, “Methods for treating chemoresistant cancer-initiating cells” (UNIVERSITY OF CONNECTICUT, priority 2015, dated 2021)

Experiments:
Type in all cases: in vivo, mouse
pS^552-β-catenin = assay: Anti-pS552-β-catenin staining of populations sorted from treated leukemic mice; conditions: [Low]DXR 0.5 mg/kg daily x5; chemotherapy Nelarabine 217 mg/kg + Dexamethasone 10 mg/kg daily x5
Text: Open arrows indicate a single treatment cycle for typical clinical use of DXR and targeted use strategy (inner box) drawn to relative scales. Triangles represent DXR treatment drawn proportionally to scale. The cumulative targeted dose (distributed over 5 days consecutively) is indicated to relative scale by the inner triangle (white) (see Methods). c, Representative flow cytometry sorting gates indicating HSPC, LSC and (non-LSC) T-ALL blast cell populations. d, Populations from (c) were sorted from leukemic mice treated as indicated in (a,b) with vehicle, chemotherapy, [Low]DXR or chemotherapy+[Low]DXR and stained with Anti-pS^552-β-catenin antibody. Mean fluorescent intensity (MFI) is indicated for each population and treatment. e, Representative images of pS^552-β-catenin staining of LSCs sorted from mice treated as indicated from (d). Scale bars, 30 μm (inset 3 μm).
Chemotherapy consisted of Nelarabine (Selleck) and Dexamethasone (BioVision) administered daily for 5 days consecutively. 43.4 mg/ml Nelarabine was administered intravenously via the tail vain according to the formula: Body Weight (g)×5=volume to inject (μl), which yielded 217 mg/kg. 2.5 mg/ml Dexamethasone was injected intraperitoneally according to the formula: Body Weight (g)×4=volume to inject (μl), yielding 10 mg/kg. […]
It was next determined whether DXR could inhibit pS^552-β-catenin in vivo. […]

[1] = tested on: LSCs and HSPCs of leukemic Pten:β-catAct mice; assay: Example 6: LSCs and HSPCs in BM of leukemic mice, Doxo vs NanoDoxo vs Doxil with chemotherapy; conditions: Doxo 0.5 mg/kg x5 daily, NanoDoxo or Doxil single 0.8 mg/kg, BM 5-6 days after treatment
Text: All drugs were solubilized in 45% (2-Hydroxypropyl)-β-cyclodextrin (HBC).

[2] = tested on: blast cells, LSCs and HSPCs sorted from treated leukemic mice; assay: Limiting-dilution transplants into NSG recipients, CRU frequency (ELDA); conditions: for Engrafted: HSPCs
Experimental: Leukemic mice were treated with vehicle, chemotherapy, [Low]DXR or chemotherapy+[Low]DXR as described in FIG. 3a. a-c, At 10 days post-treatment, BM was analyzed by flow cytometry to determine frequency of blast cells (a), LSCs (b) and HSPCs (c). Shown are representative plots. d, Average frequency±SD of each population from a-c (n≥6 per group). e, Limiting-dilution assays to determine CRU frequency were performed on blast cells and LSCs sorted from chemotherapy treated leukemic mice and on HSPCs sorted from [Low]DXR treated mice. Engraftment 1% blast cells) was determined in NSG recipients at 10-12 weeks post-transplant.
Limiting-dilution and tumorigenic assays were performed by establishing leukemic mice as described above and treating as indicated at 8 weeks post-induction. For limiting-dilution transplants, mice were treated with chemotherapy or [Low]DXR and, at 10 days post-treatment (based on first treatment), CD45^Hi CD^3+ c-Kit^− blast cells or Lin^− CD^3+ c-Kit^Mid LSCs were sorted from chemotherapy treated mice and Lin^− Sca-1^+ c-Kit^+ HSPCs were sorted from [Low]DXR treated mice. The indicated numbers of these populations were transplanted into 3.25 Gy irradiated NOD. Cg-Prkdc^scid II2rg^tm1WjI/SzJ (NSG) recipient mice. Recipient bone marrow was analyzed by flow cytometry at 10-12 weeks post-transplant and those with ≥1% CD45^Hi blast cells in bone marrow were considered engrafted. CRU frequency was determined using ELDA analysis.

COc1cccc2c1C(=O)c1c(O)c3c(c(O)c1C2=O)C[C@@](O)(C(=O)CO)C[C@@H]3O[C@H]1C[C@H](N)[C@H](O)[C@H](C)O1 [DXR, doxorubicin]
pS552-β-catenin level in LSCs sorted from treated mice (pS^552-β-catenin): reduced in LSCs isolated from mice recently treated with [Low]DXR, although consistent variability yielded no statistical significance
HSPC recovery in BM [1]: facilitates recovery of HSPCs
LSCs in BM [1]: prevents this expansion
engraftment behaviour of HSPCs sorted from treated mice ([2]; 10-12 weeks post-transplant): only engrafted at low levels without developing into leukemia
Engrafted ([2]; dose 50, 5 tested): 0
Engrafted ([2]; dose 150, 6 tested): 1
Engrafted ([2]; dose 450, 5 tested): 1
